#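 Assay format: 96-well plates, 48-hour exposure. Abbreviation: GI50, concentration required for 50% inhibition of growth. TGI denotes the concentration required for complete inhibition of growth.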
# Assays:
# Assay in all cases: growth of human tumour cells (NCI), 48 h
# 786-0 renal = system: 786-0 renal
# A498 renal = system: A498 renal
# ACHN renal = system: ACHN renal
# BT-549 breast = system: BT-549 breast
# CAKI-1 renal = system: CAKI-1 renal
# CCRF-CEM leukemia = system: CCRF-CEM leukemia
# DU-145 prostate = system: DU-145 prostate
# EKVX NSCLC = system: EKVX NSCLC
# HCC-2998 colon = system: HCC-2998 colon
# HCT-116 colon = system: HCT-116 colon
# HCT-15 colon = system: HCT-15 colon
# HL-60(TB) leukemia = system: HL-60(TB) leukemia
# HOP-62 NSCLC = system: HOP-62 NSCLC
# HOP-92 NSCLC = system: HOP-92 NSCLC
# HS 578T breast = system: HS 578T breast
# IGROV1 ovarian = system: IGROV1 ovarian
# KM12 colon = system: KM12 colon
# M14 melanoma = system: M14 melanoma
# MCF7 breast = system: MCF7 breast
# MDA-MB-231 breast = system: MDA-MB-231 breast
# MDA-MB-435 = system: MDA-MB-435
# MOLT-4 leukemia = system: MOLT-4 leukemia
# NCI-H23 lung = system: NCI-H23 lung
# NCI-H522 lung = system: NCI-H522 lung
# OVCAR-3 ovarian = system: OVCAR-3 ovarian
# OVCAR-5 ovarian = system: OVCAR-5 ovarian
# OVCAR-8 ovarian = system: OVCAR-8 ovarian
# RPMI-8226 leukemia = system: RPMI-8226 leukemia
# RXF 393 renal = system: RXF 393 renal
# SF-268 CNS = system: SF-268 CNS
# SF-295 CNS = system: SF-295 CNS
# SK-MEL-2 melanoma = system: SK-MEL-2 melanoma
# SK-MEL-5 melanoma = system: SK-MEL-5 melanoma
# SK-OV-3 ovarian = system: SK-OV-3 ovarian
# SN12C renal = system: SN12C renal
# SNB-19 CNS = system: SNB-19 CNS
# SNB-75 CNS = system: SNB-75 CNS
# SR leukemia = system: SR leukemia
# SW-620 colon = system: SW-620 colon
# T-47D breast = system: T-47D breast
# U251 CNS = system: U251 CNS
# UACC-62 melanoma = system: UACC-62 melanoma
# UO-31 renal = system: UO-31 renal
# A549 NSCLC = system: A549 NSCLC
# COLO 205 colon = system: COLO 205 colon
# HT29 colon = system: HT29 colon
# K-562 leukemia = system: K-562 leukemia
# LOX IMVI melanoma = system: LOX IMVI melanoma
# MALME-3M melanoma = system: MALME-3M melanoma
# NCI-H226 lung = system: NCI-H226 lung
# NCI-H460 lung = system: NCI-H460 lung
# NCI/ADR-RES ovarian = system: NCI/ADR-RES ovarian
# PC-3 prostate = system: PC-3 prostate
# SF-539 CNS = system: SF-539 CNS
# SK-MEL-28 melanoma = system: SK-MEL-28 melanoma
# TK-10 renal = system: TK-10 renal
# UACC-257 melanoma = system: UACC-257 melanoma
smiles,measurement,setting,value
COc1ccc(C2=NN(C(C)=O)C(c3ccc(Oc4ccnc5cc(Cl)ccc45)c(OC)c3)C2)cc1 (stereo unspecified),GI50,786-0 renal,4.52 µM
same,TGI,786-0 renal,26.8 µM
same,GI50,A498 renal,15.2 µM
same,TGI,A498 renal,92.2 µM
same,GI50,ACHN renal,4.03 µM
same,TGI,ACHN renal,> 100 µM
same,GI50,BT-549 breast,4 µM
same,TGI,BT-549 breast,> 100 µM
same,GI50,CAKI-1 renal,> 100 µM
same,TGI,CAKI-1 renal,> 100 µM
same,GI50,CCRF-CEM leukemia,> 100 µM
same,TGI,CCRF-CEM leukemia,> 100 µM
same,GI50,DU-145 prostate,> 100 µM
same,TGI,DU-145 prostate,> 100 µM
same,GI50,EKVX NSCLC,51.7 µM
same,TGI,EKVX NSCLC,> 100 µM
same,GI50,HCC-2998 colon,> 100 µM
same,TGI,HCC-2998 colon,> 100 µM
same,GI50,HCT-116 colon,2.61 µM
same,TGI,HCT-116 colon,> 100 µM
same,GI50,HCT-15 colon,> 100 µM
same,TGI,HCT-15 colon,> 100 µM
same,GI50,HL-60(TB) leukemia,> 100 µM
same,TGI,HL-60(TB) leukemia,> 100 µM
same,GI50,HOP-62 NSCLC,3.37 µM
same,TGI,HOP-62 NSCLC,13.1 µM
same,GI50,HOP-92 NSCLC,3.03 µM
same,TGI,HOP-92 NSCLC,15.4 µM
same,GI50,HS 578T breast,5.15 µM
same,TGI,HS 578T breast,> 100 µM
same,GI50,IGROV1 ovarian,6.29 µM
same,TGI,IGROV1 ovarian,> 100 µM
same,GI50,KM12 colon,> 100 µM
same,TGI,KM12 colon,> 100 µM
same,GI50,M14 melanoma,93 µM
same,TGI,M14 melanoma,> 100 µM
same,GI50,MCF7 breast,29.4 µM
same,TGI,MCF7 breast,> 100 µM
same,GI50,MDA-MB-231 breast,7.52 µM
same,TGI,MDA-MB-231 breast,> 100 µM
same,GI50,MDA-MB-435,> 100 µM
same,TGI,MDA-MB-435,> 100 µM
same,GI50,MOLT-4 leukemia,> 100 µM
same,TGI,MOLT-4 leukemia,> 100 µM
same,GI50,NCI-H23 lung,11.9 µM
same,TGI,NCI-H23 lung,> 100 µM
same,GI50,NCI-H522 lung,7.57 µM
same,TGI,NCI-H522 lung,> 100 µM
same,GI50,OVCAR-3 ovarian,5.4 µM
same,TGI,OVCAR-3 ovarian,> 100 µM
same,GI50,OVCAR-5 ovarian,> 100 µM
same,TGI,OVCAR-5 ovarian,> 100 µM
same,GI50,OVCAR-8 ovarian,3.63 µM
same,TGI,OVCAR-8 ovarian,> 100 µM
same,GI50,RPMI-8226 leukemia,> 100 µM
same,TGI,RPMI-8226 leukemia,> 100 µM
same,GI50,RXF 393 renal,5.04 µM
same,TGI,RXF 393 renal,41 µM
same,GI50,SF-268 CNS,9.28 µM
same,TGI,SF-268 CNS,> 100 µM
same,GI50,SF-295 CNS,5.02 µM
same,TGI,SF-295 CNS,37.2 µM
same,GI50,SK-MEL-2 melanoma,7.13 µM
same,TGI,SK-MEL-2 melanoma,26.7 µM
same,GI50,SK-MEL-5 melanoma,> 100 µM
same,TGI,SK-MEL-5 melanoma,> 100 µM
same,GI50,SK-OV-3 ovarian,6.01 µM
same,TGI,SK-OV-3 ovarian,42.9 µM
same,GI50,SN12C renal,> 100 µM
same,TGI,SN12C renal,> 100 µM
same,GI50,SNB-19 CNS,26.8 µM
same,TGI,SNB-19 CNS,> 100 µM
same,GI50,SNB-75 CNS,1.66 µM
same,TGI,SNB-75 CNS,6.16 µM
same,GI50,SR leukemia,> 100 µM
same,TGI,SR leukemia,> 100 µM
same,GI50,SW-620 colon,> 100 µM
same,TGI,SW-620 colon,> 100 µM
same,GI50,T-47D breast,5.54 µM
same,TGI,T-47D breast,34.9 µM
same,GI50,U251 CNS,4.51 µM
same,TGI,U251 CNS,38.4 µM
same,GI50,UACC-62 melanoma,5.35 µM
same,TGI,UACC-62 melanoma,> 100 µM
same,GI50,UO-31 renal,> 100 µM
same,TGI,UO-31 renal,> 100 µM
COc1cc2c(c(OC)c1OC)-c1c(c3ccc([N+](=O)[O-])cc3c(=O)n1CCCBr)C2=O,GI50,786-0 renal,35.1 µM
same,TGI,786-0 renal,> 100 µM
same,GI50,A498 renal,> 100 µM
same,TGI,A498 renal,> 100 µM
same,GI50,A549 NSCLC,62.8 µM
same,TGI,A549 NSCLC,> 100 µM
same,GI50,BT-549 breast,35.8 µM
same,TGI,BT-549 breast,97.5 µM
same,GI50,CAKI-1 renal,13.4 µM
same,TGI,CAKI-1 renal,61.3 µM
same,GI50,CCRF-CEM leukemia,14.8 µM
same,TGI,CCRF-CEM leukemia,> 100 µM
same,GI50,COLO 205 colon,> 100 µM
same,TGI,COLO 205 colon,> 100 µM
same,GI50,EKVX NSCLC,> 100 µM
same,TGI,EKVX NSCLC,> 100 µM
same,GI50,HCC-2998 colon,50.4 µM
same,TGI,HCC-2998 colon,> 100 µM
same,GI50,HCT-116 colon,18.7 µM
same,TGI,HCT-116 colon,> 100 µM
same,GI50,HOP-62 NSCLC,15.8 µM
same,TGI,HOP-62 NSCLC,54.3 µM
same,GI50,HS 578T breast,67.9 µM
same,TGI,HS 578T breast,> 100 µM
same,GI50,HT29 colon,> 100 µM
same,TGI,HT29 colon,> 100 µM
same,GI50,K-562 leukemia,38.8 µM
same,TGI,K-562 leukemia,> 100 µM
same,GI50,KM12 colon,60.7 µM
same,TGI,KM12 colon,> 100 µM
same,GI50,LOX IMVI melanoma,31.9 µM
same,TGI,LOX IMVI melanoma,> 100 µM
same,GI50,M14 melanoma,21 µM
same,TGI,M14 melanoma,59.1 µM
same,GI50,MALME-3M melanoma,11.4 µM
same,TGI,MALME-3M melanoma,47.6 µM
same,GI50,MCF7 breast,0.0551 µM
same,TGI,MCF7 breast,0.439 µM
same,GI50,MDA-MB-231 breast,31.3 µM
same,TGI,MDA-MB-231 breast,> 100 µM
same,GI50,MDA-MB-435,> 100 µM
same,TGI,MDA-MB-435,> 100 µM
same,GI50,MOLT-4 leukemia,15.2 µM
same,TGI,MOLT-4 leukemia,> 100 µM
same,GI50,NCI-H226 lung,13.5 µM
same,TGI,NCI-H226 lung,68.5 µM
same,GI50,NCI-H23 lung,68.9 µM
same,TGI,NCI-H23 lung,> 100 µM
same,GI50,NCI-H460 lung,8.53 µM
same,TGI,NCI-H460 lung,> 100 µM
same,GI50,NCI-H522 lung,17 µM
same,TGI,NCI-H522 lung,> 100 µM
same,GI50,NCI/ADR-RES ovarian,70.6 µM
same,TGI,NCI/ADR-RES ovarian,> 100 µM
same,GI50,OVCAR-3 ovarian,> 100 µM
same,TGI,OVCAR-3 ovarian,> 100 µM
same,GI50,OVCAR-5 ovarian,> 100 µM
same,TGI,OVCAR-5 ovarian,> 100 µM
same,GI50,OVCAR-8 ovarian,49.8 µM
same,TGI,OVCAR-8 ovarian,> 100 µM
same,GI50,PC-3 prostate,26.3 µM
same,TGI,PC-3 prostate,> 100 µM
same,GI50,RPMI-8226 leukemia,35 µM
same,TGI,RPMI-8226 leukemia,> 100 µM
same,GI50,RXF 393 renal,24.4 µM
same,TGI,RXF 393 renal,> 100 µM
same,GI50,SF-268 CNS,4.83 µM
same,TGI,SF-268 CNS,45.8 µM
same,GI50,SF-295 CNS,24.2 µM
same,TGI,SF-295 CNS,> 100 µM
same,GI50,SF-539 CNS,4.5 µM
same,TGI,SF-539 CNS,17.9 µM
same,GI50,SK-MEL-2 melanoma,> 100 µM
same,TGI,SK-MEL-2 melanoma,> 100 µM
same,GI50,SK-MEL-28 melanoma,> 100 µM
same,TGI,SK-MEL-28 melanoma,> 100 µM
same,GI50,SK-MEL-5 melanoma,19.8 µM
same,TGI,SK-MEL-5 melanoma,65.8 µM
same,GI50,SK-OV-3 ovarian,> 100 µM
same,TGI,SK-OV-3 ovarian,> 100 µM
same,GI50,SN12C renal,19.7 µM
same,TGI,SN12C renal,> 100 µM
same,GI50,SNB-19 CNS,57.4 µM
same,TGI,SNB-19 CNS,> 100 µM
same,GI50,SNB-75 CNS,80 µM
same,TGI,SNB-75 CNS,> 100 µM
same,GI50,SR leukemia,4.37 µM
same,TGI,SR leukemia,> 100 µM
same,GI50,SW-620 colon,18.2 µM
same,TGI,SW-620 colon,> 100 µM
same,GI50,TK-10 renal,23.5 µM
same,TGI,TK-10 renal,90.2 µM
same,GI50,U251 CNS,24.4 µM
same,TGI,U251 CNS,> 100 µM
same,GI50,UACC-257 melanoma,> 100 µM
same,TGI,UACC-257 melanoma,> 100 µM
same,GI50,UACC-62 melanoma,23.8 µM
same,TGI,UACC-62 melanoma,90.1 µM
same,GI50,UO-31 renal,14.4 µM
same,TGI,UO-31 renal,72.5 µM

# Source: PubChem BioAssay (NCI)
